From ChEMBL document CHEMBL5038615, “Discovery of a cinnamyl piperidine derivative as new neddylation inhibitor for gastric cancer treatment” (Eur J Med Chem, 2021)
Active and inactive are the calls of the source. No cut-off for these calls is given here.

How the values were obtained:
[1] = tested on: MGC-803; assay: Induction of apoptosis in human MGC-803 cells assessed as down-regulation of Keap1 expression at 2.5 to 7.5 uM measured after 24 hrs by Western blot assay; type: functional, cell-based; settings: dose 2.5-7.5 µM
[2] = tested on: MGC-803; assay: Induction of apoptosis in human MGC-803 cells assessed as viable cells at 7.5 uM measured after 24 hrs by AnnexinV/FITC staining based flow cytometry method (reference value: 94.8%); type: functional; settings: read-out: Activity
[3] = tested on: HGC-27; assay: Induction of apoptosis in human HGC-27 cells assessed as viable cells at 3 uM measured after 48 hrs by AnnexinV/FITC staining based flow cytometry method (reference value: 93.18%); type: functional; settings: read-out: Activity
[4] = tested on: MGC-803; assay: Induction of apoptosis in human MGC-803 cells assessed as early apoptotic cells at 7.5 uM measured after 24 hrs by AnnexinV/FITC staining based flow cytometry method (reference value: 1.3%); type: functional
[5] = tested on: MGC-803; assay: Cell cycle arrest in human MGC-803 cells assessed as accumulation of cells at G0/G1 phase at 2.5 uM measured after 24 hrs by Flowcytometry assay (reference value: 46.01%); type: functional
[6] = tested on: MGC-803; assay: Induction of apoptosis in human MGC-803 cells assessed as early apoptotic cells at 5 uM measured after 24 hrs by AnnexinV/FITC staining based flow cytometry method (reference value: 1.3%); type: functional
[7] = tested on: MGC-803; assay: Induction of apoptosis in human MGC-803 cells assessed as upregulation of Bak at 2.5 to 7.5 uM measured after 24 hrs by Western blot assay; type: functional, cell-based; settings: dose 2.5-7.5 µM
[8] = tested on: HGC-27; assay: Induction of apoptosis in human HGC-27 cells assessed as necrotic cells at 6 uM measured after 24 hrs by AnnexinV/FITC staining based flow cytometry method (reference value: 1.2%); type: functional
[9] = tested on: MGC-803; assay: Induction of apoptosis in human MGC-803 cells assessed as early apoptotic cells at 2.5 uM measured after 24 hrs by AnnexinV/FITC staining based flow cytometry method (reference value: 1.3%); type: functional
[10] = tested on: MGC-803; assay: Induction of apoptosis in human MGC-803 cells assessed as early apoptotic cells at 7.5 uM measured after 48 hrs by AnnexinV/FITC staining based flow cytometry method (reference value: 1.5%); type: functional
[11] = tested on: HGC-27; assay: Induction of apoptosis in human HGC-27 cells assessed as late apoptotic cells at 3 uM measured after 24 hrs by AnnexinV/FITC staining based flow cytometry method (reference value: 2.4%); type: functional
[12] = tested on: MGC-803; assay: Cell cycle arrest in human MGC-803 cells assessed as accumulation of cells at G2/M phase at 5 uM measured after 24 hrs by Flowcytometry assay (reference value: 13.71%); type: functional
[13] = tested on: HGC-27; assay: Induction of apoptosis in human HGC-27 cells assessed as late apoptotic cells at 6 uM measured after 24 hrs by AnnexinV/FITC staining based flow cytometry method (reference value: 2.4%); type: functional
[14] = tested on: HGC-27; assay: Induction of apoptosis in human HGC-27 cells assessed as early apoptotic cells at 9 uM measured after 24 hrs by AnnexinV/FITC staining based flow cytometry method (reference value: 0.7%); type: functional
[15] = tested on: HGC-27; assay: Induction of apoptosis in human HGC-27 cells assessed as early apoptotic cells at 3 uM measured after 24 hrs by AnnexinV/FITC staining based flow cytometry method (reference value: 0.7%); type: functional
[16] = tested on: MGC-803; assay: Induction of apoptosis in human MGC-803 cells assessed as down-regulation of Nrf2 expression in nucleus at 2.5 to 7.5 uM measured after 24 hrs by Western blot assay; type: functional, cell-based; settings: dose 2.5-7.5 µM
[17] = tested on: HGC-27; assay: Induction of apoptosis in human HGC-27 cells assessed as viable cells at 9 uM measured after 24 hrs by AnnexinV/FITC staining based flow cytometry method (reference value: 95.7%); type: functional; settings: read-out: Activity
[18] = tested on: MGC-803; assay: Cell cycle arrest in human MGC-803 cells assessed as accumulation of cells at S phase at 5 uM measured after 24 hrs by Flowcytometry assay (reference value: 36.51%); type: functional
[19] = tested on: MGC-803; assay: Induction of apoptosis in human MGC-803 cells assessed as ROS levels at 5 uM measured after 24 hrs by DCFH-DA staining based flow cytometry assay (reference value: 3.3%); type: functional
[20] = tested on: HGC-27; assay: Inhibition of cell migration in human HGC-27 cells at 5 uM measured after 48 hrs by wound healing assay based inverted microscopic analysis; type: functional
[21] = tested on: MGC-803; assay: Cell cycle arrest in human MGC-803 cells assessed as accumulation of cells at G2/M phase at 2.5 uM measured after 24 hrs by Flowcytometry assay (reference value: 13.71%); type: functional
[22] = biological target: T1, NEDD8-activating enzyme E1 regulatory subunit (Homo sapiens) (UniProt Q13564); assay: Inhibition of NAE-mediated neddylation in human MGC-803 cells assessed as cullin4A-Nedd8 adduct formation at 2.5 to 7.5 uM measured after 24 hrs by western blot assay; type: cell-based; settings: dose 2.5-7.5 µM
T1 sequence (whole entry): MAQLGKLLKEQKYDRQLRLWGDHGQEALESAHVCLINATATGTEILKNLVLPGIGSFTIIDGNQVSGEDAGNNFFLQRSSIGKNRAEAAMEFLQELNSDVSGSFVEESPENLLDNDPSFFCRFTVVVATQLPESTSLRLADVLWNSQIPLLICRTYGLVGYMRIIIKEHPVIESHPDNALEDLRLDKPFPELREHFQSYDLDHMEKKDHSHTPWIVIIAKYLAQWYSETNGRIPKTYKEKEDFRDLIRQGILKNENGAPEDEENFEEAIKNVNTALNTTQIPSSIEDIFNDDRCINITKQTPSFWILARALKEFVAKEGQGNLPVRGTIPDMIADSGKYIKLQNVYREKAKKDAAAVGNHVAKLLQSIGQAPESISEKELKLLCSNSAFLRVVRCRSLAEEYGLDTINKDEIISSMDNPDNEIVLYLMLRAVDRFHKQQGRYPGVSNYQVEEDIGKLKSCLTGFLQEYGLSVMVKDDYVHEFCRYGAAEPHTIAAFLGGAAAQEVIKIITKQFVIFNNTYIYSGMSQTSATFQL

[23] = tested on: MGC-803; assay: Induction of apoptosis in human MGC-803 cells assessed as early apoptotic cells at 2.5 uM measured after 48 hrs by AnnexinV/FITC staining based flow cytometry method (reference value: 1.5%); type: functional
[24] = biological target: T1, NEDD8-activating enzyme E1 regulatory subunit (Homo sapiens); assay: Inhibition of NAE-mediated neddylation in human MGC-803 cells assessed as cullin1-Nedd8 adduct formation at 2.5 to 7.5 uM measured after 24 hrs by western blot assay; type: cell-based; settings: dose 2.5-7.5 µM
[25] = tested on: MGC-803; assay: Induction of apoptosis in human MGC-803 cells assessed as necrotic cells at 7.5 uM measured after 24 hrs by AnnexinV/FITC staining based flow cytometry method (reference value: 1.9%); type: functional
[26] = tested on: MGC-803; assay: Antitumour activity against human MGC-803 cells xenografted in NOD-SCID mouse assessed as reduction on tumour growth at 50 mg/kg/day, IG measured after 21 days relative to control; type: functional; settings: MGC-803, po, 504 h, time 21 day, read-out: TGI
[27] = tested on: HGC-27; assay: Induction of apoptosis in human HGC-27 cells assessed as necrotic cells at 3 uM measured after 48 hrs by AnnexinV/FITC staining based flow cytometry method (reference value: 0.1%); type: functional
[28] = tested on: HGC-27; assay: Induction of apoptosis in human HGC-27 cells assessed as necrotic cells at 9 uM measured after 24 hrs by AnnexinV/FITC staining based flow cytometry method (reference value: 1.2%); type: functional

SMILES: CCCCCc1ccc(NC(=O)C2CCN(C/C=C/c3ccccc3)CC2)cc1
- Activity [1]: Active
- viability at 7.5 µM [2]: 9.1%
- viability at 3 µM [3]: 64.4%
- Activity [4]: 1.7%
- Activity [5]: 48.87%
- Activity [6]: 0.8%
- Activity [7]: Dose-Dependent Effect
- Activity [8]: 0.2%
- Activity [9]: 2.1%
- Activity [10]: 4%
- Activity [11]: 4.6%
- Activity [12]: 19.31%
- Activity [13]: 51.3%
- Activity [14]: 2.3%
- Activity [15]: 7.5%
- Activity [16]: Active
- viability at 9 µM [17]: 20.9%
- Activity [18]: 33.81%
- Activity [19]: 5.4%
- inhibition at 5 µM [20]: 60%
- Activity [21]: 17.77%
- inhibition [22]: inactive
- Activity [23]: 3%
- inhibition [24]: Active
- Activity [25]: 6.9%
- inhibition in vivo at 50 mg/kg/day [26]: 32.3%
- Activity [27]: 2.4%
- Activity [28]: 2.7%
